Test results reported in patent US10814010B2, “FOXC2 inhibitor and methods of use thereof” (The Board of Regents of The University of Texas System, priority 2018, dated 2020).

What was measured:
[1] = biological target: T1, endogenously expressed FOXC2 (Homo sapiens, UniProt Q99958); assay: Drug affinity responsive target stability (DARTS) assay with MDA-MB-231 cell lysate; type: binding; details: 20 μM, Western blot
T1 construct: endogenous in cells; host or cells: MDA-MB-231
T1 sequence (Q99958 1-501): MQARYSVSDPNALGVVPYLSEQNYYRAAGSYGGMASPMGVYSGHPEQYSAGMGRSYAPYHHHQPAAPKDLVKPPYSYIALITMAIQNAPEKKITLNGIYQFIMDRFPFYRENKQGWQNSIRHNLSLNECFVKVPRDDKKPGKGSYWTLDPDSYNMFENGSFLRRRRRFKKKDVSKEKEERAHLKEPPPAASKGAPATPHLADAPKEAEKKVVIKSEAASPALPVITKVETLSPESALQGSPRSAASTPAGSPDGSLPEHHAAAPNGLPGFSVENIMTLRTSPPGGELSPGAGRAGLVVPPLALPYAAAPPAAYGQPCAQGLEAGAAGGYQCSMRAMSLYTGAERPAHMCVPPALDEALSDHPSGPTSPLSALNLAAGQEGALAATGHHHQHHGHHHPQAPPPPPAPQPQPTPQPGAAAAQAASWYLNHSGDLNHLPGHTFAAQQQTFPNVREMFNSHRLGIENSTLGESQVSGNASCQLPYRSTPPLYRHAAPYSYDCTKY
Experimental: As recombinant FOXC2 was used for the screening and the binding affinity determination, it was important to examine if MC-1-F2 binds to endogenously expressed FOXC2. To this end, a drug affinity responsive target stability assay (DARTS) was performed for MC-1-F2 and MC-C with cell lysate of MDA-MB-231 cells (FIG. 2B). In DARTS, the binding of a small molecule to its cellular target increases protease resistance of the target protein (Pai et al., 2015).
MDA-MB-231 cell lysate was harvested and incubated with 600 μL of Triton X-100 lysis buffer (50 mM Tris-HCl, 150 mM NaCl, 1 mM EDTA, 1% Triton X-100, pH 8.0) with protease inhibitor and 150 μL of phosphate inhibitor was added. Then frozen overnight followed by addition of 66.7 μL of 10×TNC buffer (1 M Tris-HCl, 5 M NaCl, 1 M CaCl2, pH 8.0) and gently mixed. The lysate was further split into 2 test tubes: Tube (1) 300 μL, Tube (2) 300 μL of cell lysate. The samples were incubated in desired concentration of compounds for 1 hour at room temperature and gently mixed. Once done the lysate of each condition was further split into 5 test tubes for each pronase condition. Pronase stock solution was thawed prior to use and 2 μL of each concentration were added to each tube and allowed to incubate for 20-30 minutes, followed by the addition of SDS loading buffer to stop pronase digestion followed by Western blot analysis.

DU145 cells = assay: MTT cell viability assay, DU145; type: cell-based; details: Homo sapiens, DU-145, 24 hour treatment
Experimental: In order to determine the EC50 of MC-1-F2, an MTT assay on cell viability was performed in both DU145 and PC3.
(§1) Cell viability was assessed by MTT (3-(4,5-Dimethylthiazol-2-yl)-2,5-Diphenyltetrazolium Bromide) assay 5,000 cells were seeded on a 96-well cell culture plate and were incubated for at least 24 hours prior to drug treatment. The MTT reagent (Fisher Scientific) was added to the culture medium 3 hours prior to the end of compound incubation. The reaction took place in the 37° C. incubator with 5% CO2 for 3 hours. Cell culture medium was then removed from the wells. Cells with the insoluble purple formazan were lysed with DMSO for 10 mins at room temperature, 200 μL per well. Absorbance was read at 570 nm using a plate reader.

MDA-MB-231 cells = assay: MTT cell viability assay, MDA-MB-231; type: cell-based; details: Homo sapiens; MDA-MB-231, MTT, high FOXC2 expression
Experimental: It was hypothesized that the specific binding of MC-1-F2 can lead to its specific cellular activity against cancer cells with high FOXC2 expression. This hypothesis was tested by evaluating MC-1-F2's cellular activity on cell lines with different FOXC2 expression levels: MCF-7, BT549, and MDA-MB-231. […] However, further studies are still underway. The specificity in cellular activity of MC-1-F2 was further evaluated in the form of a soft-agar colony forming assay to determine if MC-1-F2 was able to inhibit in vitro tumorigenicity of cancer cells in a FOXC2 expression-dependent manner. […] Further testing is underway in various breast cancer cell lines with different FOXC2 expression levels.
as §1, with “Bromide) assay. 1×10^4” for “Bromide) assay 5,000”, “on 48-well” for “on a 96-well”, “culture plate,” for “culture plate”, “temperature, 0.5 ml” for “temperature, 200 μL”, “well. The solution” for “well. Absorbance”, “was aliquot to 96-well plate for absorbance reading” for “was read”

## N=C(N)NCCCCNc1nc(Nc2ccc(Oc3ccccc3)cc2)nc(N2CCN(c3nc(N)nc(Nc4ccc(N5CCOCC5)cc4)n3)CC2)n1 [MC-1-F2]
[1]
  protection of FOXC2 from pronase-mediated proteolysis (DARTS): protection of FOXC2 from pronase-mediated proteolysis
[1]; pronase
  proteolysis of β-actin (DARTS): did not affect the proteolysis β-actin
DU145 cells
  EC50: 48.1 µM
MDA-MB-231 cells
  EC50: ~20 µM
